Data on 27 compounds can be found in patent publication US20040053966A1, “Chemical derivatives and their application as antitelomerase agent” (Aventis Pharms S.A., priority 1999, published 2004).

Molecules are shown by their SMILES. Where a name gives a salt, the structure may show the parent alone. Read-outs that look alike come from different tables or passages of the source.

The test system of series [1] is human telomerase (HL60 cell extract). Kind of series: Antitelomerase activity, TRAP (extension of oligonucleotide TS and PCR amplification). The format is biochemical. As to conditions: telomerase extract from HL60 cells.
Series [2] relates to A549 cells. Kind of series: Cytotoxic activity on human tumour line A549 (neutral red). As to conditions: 96 hours incubation, read-out: Cytotox. A549 IC50. The format is cell-based. On the procedure: The Cytotoxic Biological Activity on Human Tumour Lines is Determined According to the Following Experimental Protocol:
The cells at the exponential growth phase are trypsinized, washed in 1× PBS and are inoculated in 96-well microplates (Costar) in an amount of 4×10^4 cells/ml for A549 and of 1.5×10^4 cells/ml (0.2 ml/well) and then incubated for 96 hours in the presence of variable concentrations of product to be studied (10, 1, 0.1 and 0.01 μg/ml, each point in quadruplicate). 16 hours before the end of the incubation, 0.02% final of neutral red is added to each well. At the end of the incubation, the cells are washed with 1× PBS and lysed with 1% sodium lauryl sulphate. The cellular incorporation of the dye, which reflects cellular growth, is evaluated by spectrophotometry at a wavelength of 540 nm for each sample with the aid of a Dynatech MR5000 reading apparatus.
(compound value−blank value/cell control value−blank value)×100.

Series [3] relates to G-quadruplex of oligonucleotide GGGTTAGGGTTAGGGTTAGGG (3.5 repeats of the human telomeric motif). The series is described as follows: G-quadruplex stabilizing activity, fluorescence Tm (FAM+DABCYL oligonucleotide). The format is binding. As to conditions: test product 1 μM, oligonucleotide 0.2 μM, 0.1 M LiCl, 10 mM cacodylate pH 7.6; reference without product 44° C. An excerpt: The G-quadruplex stabilizing activity may be determined by a method using the formation of a complex with fluorescein of which the experimental protocol is described below. Oligonucleotides […] The oligonucleotide FAM+DABCYL carries the catalogue reference OL-0371-0802. It has the sequence: […] The fluorescein is attached to the 5' end, the DABCYL to the 3' end, by the chemical arms described by Eurogentec. The concentration of the samples is checked by spectrophotometry, recording the absorbance spectrum between 220 and 700 nm and using the molar extinction coefficient provided by the supplier. Buffers All the experiments were carried out in a 10 mM sodium cacodylate buffer pH 7.6 containing 0.1 M lithium chloride (or sodium chloride). The absence of fluorescent contamination in the buffer was checked beforehand. The fluorescent oligonucleotide is added at the final concentration of 0.2 μM. Study of Fluorescence All the measurements of fluorescence were carried out on a Spex Fluorolog DMlB apparatus, using an excitation line width of 1.8 nm and an emission line width of 4.5 nm. The samples are placed in a microquartz cuvette of 0.2×1 cm. The temperature of the sample is controlled by an external water bath. The oligonucleotide alone was analysed at 20, 30, 40, 50, 60, 70 and 80° C. The emission spectra are recorded using an excitation wavelength of 470 nm. The excitation spectra are recorded using either 515 nm or 588 nm as emission wavelength. The spectra are corrected for the response of the instrument by reference curves. A high extinction (80-90%) of the fluorescence of fluorescein at room temperature is observed, in agreement with an intramolecular folding of the oligonucleotide at 20° C. in the form of a G-quadruplex, which induces juxtaposition of its [NT] ends which are respectively linked to fluorescein and to DABCYL. This juxtaposition causes an already-described phenomenon of extinction of fluorescence which is used for “molecular beacons”. Fluorescence Tm: […] The samples are then allowed to incubate for at least 1 hour at 20° C. before each measurement. The use of longer incubation times (up to 24 hours) has no influence on the result obtained. Each experiment allows the measurement of only one sample. The latter is first incubated at an initial temperature of 20° C., heated to 80° C. over 38 minutes, left for 5 minutes at 80° C. and then cooled to 20° C. over 62 minutes. During this time, the fluorescence is measured simultaneously at two emission wavelengths (515 nm and 588 nm) using 470 nm as excitation wavelength. A measurement is carried out every 30 seconds. The temperature of the water bath is recorded in parallel, and the fluorescence profile as a function of the temperature is reconstituted from these values. The fluorescence profiles are then normalized between 20° C. and 80° C., and the temperature for which the intensity of emission at 515 nm is the mean of those at high and low temperature is called Tm. Under these conditions, the Tm of the reference sample without addition of product is 44° C. in a lithium chloride buffer. This temperature is increased to more than 55° C. in a sodium chloride buffer. The addition of a G-quadruplex-stabilizing compound induces an increase in the Tm. This increase is judged to be significant if it is greater than […].

As to `Cc1cc(N)c2cc(Nc3nc(N)nc(Nc4ccc5c(c4)c(N)cc(C)[n+]5C)n3)ccc2[n+]1C` [Example 1, 2-amino-bis-4,6-[(1′-methyl-4′-amino-6′-quinaldinio)amino]triazine dichloride], the midpoint of inhibition in series [1], the IC50, lay at 250 nM.

For `CC[n+]1c(C)cc(N)c2cc(Nc3nc(N)nc(Nc4ccc5c(c4)c(N)cc(C)[n+]5CC)n3)ccc21` [Example 2, 2-amino-bis-4,6-[(1′-ethyl-4′-amino-6′-quinaldinio)amino]triazine dichloride], the IC50 (usually the point on the concentration scale where inhibition reaches its midpoint) is 4700 nM in series [2] (Homo sapiens, A549, 96 h) and 56 nM in series [1]. Also, the “FLUORESCENCE Tm” value in series [3] was 48° ° C.

On to `Cc1cc(N)c2cc(Nc3nc(Nc4ccc5c(c4)c(N)cc(C)[n+]5C)nc(N(C)C)n3)ccc2[n+]1C` [Example 3, 2-dimethylamino-bis-4,6-[(1′-methyl-4′-amino-6′-quinaldinio)amino]triazine dichloride], for which the “FLUORESCENCE Tm” value in series [3] is listed as 52° ° C. Further, in series [1], 220 nM corresponded to half-maximal inhibition (IC50).

Turning to `CNc1nc(Nc2ccc3nc(C)cc(N)c3c2)nc(Nc2ccc3nc(C)cc(N)c3c2)n1` [Example 4, 2-methylamino-bis-4,6-[(4′-amino-6′-quinaldinyl)amino]triazine trihydrochloride], the IC50 in series [2] (Homo sapiens, A549, 96 h) stood at 3100 nM; in series [1] it was 510 nM. Also, the “FLUORESCENCE Tm” value in series [3] is listed as 48° ° C.

For `C[n+]1cccc2cc(Nc3nc(N)nc(Nc4ccc5c(ccc[n+]5C)c4)n3)ccc21` [Example 5, 2-amino-bis-4,6-[(1′-methyl-6′-quinolinio)amino]triazine dichloride], in series [3], the “FLUORESCENCE Tm” value worked out at 57° ° C. Moreover, the 50% inhibitory concentration (IC50) in series [1] was 130 nM.

With `CNc1nc(Nc2ccc3nc(C)cc(NC)c3c2)nc(Nc2ccc3nc(C)cc(NC)c3c2)n1` [Example 6, 2-methylamino-bis-4,6-[(4′-methylamino-6′-quinaldinyl)amino]triazine dichloride trihydrochloride], the IC50 is 1900 nM in series [2] (Homo sapiens, A549, 96 h) and 300 nM in series [1]. Further, the “FLUORESCENCE Tm” value in series [3] is reported as 44° ° C.

`C[n+]1c2ccccc2c(N)c2cc(Nc3nc(N)nc(Nc4ccc5c(c4)c(N)c4ccccc4[n+]5C)n3)ccc21` [Example 7, 2-amino-bis-4,6-[(9′-amino-10′-methyl-2′-acridinio)amino]triazine dichloride hydrochloride]: the IC50 worked out at 4900 nM in series [2] (Homo sapiens, A549, 96 h) and 890 nM in series [1]. In series [3], the “FLUORESCENCE Tm” value was 55° ° C.

Regarding `Cc1cc(N)c2cc(Nc3nc(N)nc(Nc4ccc5nc(C)cc(N)c5c4)n3)ccc2n1` [Example 8, 2-amino-bis-4,6-[(4′-amino-6′-quinaldinyl)amino]triazine trihydrochloride], the IC50 in series [2] (Homo sapiens, A549, 96 h) was determined as 9100 nM; in series [1] it was 51 nM.

With `N=C(N)c1ccc(Nc2nc(N)nc(Nc3ccc(C(=N)N)cc3)n2)cc1` [Example 9, 2-Amino-bis-4,6-(p-amidinoanilino)triazine trihydrochloride], the IC50 in series [2] (Homo sapiens, A549, 96 h) was 530 nM; in series [1], 740 nM.

As to `CSc1nc(Nc2ccc3c(c2)c(N)cc(C)[n+]3C)nc(Nc2ccc3c(c2)c(N)cc(C)[n+]3C)n1` [Example 10, 2-methylthio-bis-4,6-[(1′-methyl-4′-amino-6′-quinaldinio)amino]triazine dichloride], the IC50 in series [2] (Homo sapiens, A549, 96 h) amounted to 3600 nM; in series [1], 240 nM.

Consider `Cc1cc(N(C)C)c2cc(Nc3nc(Cl)nc(Nc4ccc5nc(C)cc(N(C)C)c5c4)n3)ccc2n1` [Example 11, 2-chloro-bis-4,6-[(4′-dimethylamino-6′-quinaldinyl)amino]triazine dihydrochloride dihydrate], for which the IC50 in series [2] (Homo sapiens, A549, 96 h) is 5140 nM; in series [1] it was 3000 nM. For the same compound, the “FLUORESCENCE Tm” value in series [3] turned out to be 57° ° C.

For the compound `CSc1nc(Nc2ccc3nc(C)cc(N(C)C)c3c2)nc(Nc2ccc3nc(C)cc(N(C)C)c3c2)n1` [Example 12, 2-methylthio-bis-4,6-[(4′-dimethylamino-6′-quinaldinyl)amino]triazine hydrate], in series [3], the “FLUORESCENCE Tm” value came to 70° ° C. The same compound returned a concentration for half-maximal inhibition (IC50) in series [1] of 41 nM.

For the compound `Cc1cc(N)c2cc(NC(=O)Nc3ccc4nc(C)cc(N)c4c3)ccc2n1` [Example 13, N,N′-(4-amino-6-quinaldinyl)urea dihydrochloride], the IC50 in series [1] was found to be 720 nM.

Consider `C[n+]1ccc(NCCCCCNc2cc[n+](C)c3cc(Cl)ccc23)c2ccc(Cl)cc21` [Example 14, N^1,N^5-bis (7-chloro-1-methyl4-quinolinio)pentane-1,5-diamine diiodide], for which, in series [2] (Homo sapiens, A549, 96 h), the IC50 is 6500 nM.

Take `Cc1cc(N)c2cc(Nc3ccnc(Nc4ccc5nc(C)cc(N)c5c4)n3)ccc2n1.Cl.Cl.Cl.O.O.O.O.O` [Example 15, bis-2,4-[(4′-amino-6′-quinaldinyl)amino]pyrimidine trihydrochloride pentahydrate]: the results for the IC50 in series [2] and in series [1] were 8700 nM and 490 nM, respectively. For the same compound, the “FLUORESCENCE Tm” value in series [3] was 53° ° C.

In the case of `Cc1cc(N)c2cc(NC(=N)NC(=N)Nc3ccc4nc(C)cc(N)c4c3)ccc2n1` [Example 16, 1,5-(4′-amino-6′-quinaldinyl)-biguanide trihydrochloride dihydrate], the IC50 in series [2] (Homo sapiens, A549, 96 h) worked out at 5800 nM. For the same compound, the “FLUORESCENCE Tm” value in series [3] amounted to 52° ° C.

As to `CSc1nc(Nc2ccc3nc(C)cc(N)c3c2)nc(Nc2ccc3nc(C)cc(N)c3c2)n1` [Example 17-1], the IC50 in series [2] (Homo sapiens, A549, 96 h) was 1600 nM; in series [1], 49 nM. For the same compound, the “G4 Tm” value in series [3] was determined as 57 °C.

With `CSc1nc(Nc2ccc3c(c2)c(=N)cc(C)n3C)nc(Nc2ccc3c(c2)c(=N)cc(C)n3C)n1` [Example 17-2], the IC50 came to 6100 nM in series [2] (Homo sapiens, A549, 96 h) and 950 nM in series [1].

In the case of `COc1cc(C)nc2ccc(Nc3nc(Nc4ccc5nc(C)cc(OC)c5c4)nc(SC)n3)cc12` [Example 17-3], the IC50 in series [2] (Homo sapiens, A549, 96 h) turned out to be 3200 nM; in series [1], 3900 nM.

For the compound `CSc1nc(Nc2ccc3nc(C)cc(N)c3c2)nc(N(C)c2ccc3ncccc3c2)n1` [Example 18-1], the “G4 Tm” value in series [3] stood at 47 °C. The IC50 in series [1] turned out to be 3500 nM.

Turning to `COc1cc(C)nc2ccc(Nc3nc(Nc4ccc5nc(C)cc(N)c5c4)nc(SC)n3)cc12` [Example 18-2], the “G4 Tm” value in series [3] is 49 °C. The same compound displayed an IC50 in series [1] of 2300 nM.

As to `CSc1nc(Nc2ccc3nc(C)cc(C)c3c2)nc(Nc2ccc3nc(C)cc(N)c3c2)n1` [Example 18-4], the “G4 Tm” value in series [3] turned out to be 50 °C. Besides, the IC50 in series [1] is 2200 nM.

As to `CSc1nc(Nc2ccc3ncccc3c2)nc(Nc2ccc3nc(C)cc(N)c3c2)n1` [Example 18-5], the “G4 Tm” value in series [3] was 47 °C. Also, in series [1], the 50% inhibitory concentration (IC50) was found to be 3400 nM.

Turning to `CSc1nc(Nc2ccc3nc(C)cc(N)c3c2)nc(Nc2ccnc3ccccc23)n1` [Example 18-8], the “G4 Tm” value in series [3] turned out to be 49 °C. Also, the IC50 in series [1] was determined as 3400 nM.

`CCc1cc(Nc2nc(Nc3ccc4nc(C)cc(N)c4c3)nc(SC)n2)ccn1` [Example 18-12] registered an IC50 in series [1] of 2800 nM.

In turn, `CSc1nc(Nc2ccc3nc(C)ccc3c2)nc(Nc2ccc3nc(C)cc(N)c3c2)n1` [Example 18-13] had an IC50 in series [1] of 3400 nM.

With `CCN(CC)c1nc(Nc2ccncc2)nc(Nc2ccc3nc(C)cc(N)c3c2)n1` [Example 19-2], in series [3], the “G4 Tm” value turned out to be 53 °C. The same compound came in with an IC50 in series [1] of 2500 nM.
